Results taken from PMC8728392, “Synthesis, Anticancer Assessment, and Molecular Docking of Novel Chalcone-Thienopyrimidine Derivatives in HepG2 and MCF-7 Cell Lines” (Oxidative Medicine and Cellular Longevity, 2021).

How the values were obtained:
HepG2 cells = assay: Annexin V-FITC/PI apoptotic assay; assay type: cell-based, human
Excerpt: Annexin V-fluorescein isothiocyanate (FITC) and counterstaining with propidium iodide (PI) using the Annexin V-FITC/PI apoptosis detection kit (BD Biosciences, San Diego, CA) were employed to distinguish early and late apoptotic cells according to the manufacturer's directions. Annexin V conjugated with fluorescein isothiocyanate was used to quantify the loss of phosphatidylserine asymmetry in cell membranes involved in apoptosis, and propidium iodide can distinguish between early apoptosis, late apoptotic, and necrotic cells. Analyses were achieved by using a FACSCalibur flow cytometer (BD Biosciences, San Jose, CA).
Cells were gently washed twice with PBS accompanied by tryptic digestion (0.25% trypsin/EDTA) and washed yet again with PBS. All the cells including the floating and adherent ones were harvested, pooled and stained with […] in 1× binding buffer for 15 min at room temperature in the dark. Analyses were achieved by FACS Calibur flow cytometer (BD Biosciences, San Jose, CA).

[1] = system: human liver cancer cell line (HepG2); assay: MTT assay, cytotoxicity; assay type: cell-based; settings: for survival percentage (mean ± SEM): HepG2, 24 hours
Method: (§1) Cancer cell lines were manipulated according to the method described by Sigounas et al.. In this method, the cell lines were grown as adherent monolayers in T75 flasks with Dulbecco's modified Eagle's medium (DMEM) supplemented with 10% Fetal Bovine Serum (FBS), 2 mM L-glutamine, and 1% streptomycin/penicillin. The cells were left to grow in a CO2 incubator at 37°C, 5% CO2, and 95% humidity until their confluence.
(§2) The 3-[4,5-dimethylthiazol-2-yl]-2,5-diphenyltetrazolium bromide (MTT) colorimetric assay was used to examine the sensitivity of cells to tested compounds (as anticancer drugs), as previously described. This assay depends on the production of a purple formazan derivative from the yellow tetrazolium bromide (MTT) by mitochondrial succinate dehydrogenase in viable cells. The percentage of cell survival was calculated as follows: (1) Percentage of survival=O.D.treated cells/O.D.control cells×100.
(§3) For preliminary screening of the cytotoxicity of synthesized compounds 3a-g, cells exposed to DMSO were used as a control. Plotting the relationship between the survival score and the compound concentration and calculating the IC50 (the concentration required to inhibit cell viability by 50%) were performed for each test compound according to Li et al. in comparison with the reference standard anticancer agent, 5-FU.
(§4) The 3-[4,5-dimethylthiazol-2-yl]-2,5-diphenyltetrazolium bromide (MTT) colorimetric assay was used to examine the sensitivity of cells to tested compounds (as anticancer drugs), as previously described by Hussein et al. (2017). This assay depend on the production of a purple formazan derivative from the yellow tetrazolium bromide (MTT) by mitochondrial succinate dehydrogenase in viable cells. Briefly, after harvesting the cells with 0.25% trypsin, the cell lines were suspended in DMEM. Cells were seeded in 96-well microtiter plates at a concentration of 5×10^4 cell/well in a fresh medium and left to attach to the plates for 24 h before treatment with the tested compounds 3a-g. Test compounds were dissolved in dimethyl sulfoxide (DMSO). After 24 hours, cells were incubated with the appropriate concentration ranges of compounds, the wells were diluted to […] with fresh medium and incubation was continued for 24 hours. Three wells were used for each concentration. After 24 hours of treatment, 20 μl of MTT solution (5mg/ml) was added and subsequently the plates were further incubated for 4 hours to allow the viable cells to biotransform the yellow-colored MTT into purple formazan crystals. The optical density (O.D.) of each well was measured spectrophotometrically at […] with an enzyme-linked immunosorbent assay (ELISA) microplate reader (BioTek, EL-800, USA). The percentage of cell survival was calculated as follows: […]

[2] = system: human breast cancer cell line (MCF-7); assay: MTT assay, cytotoxicity; assay type: cell-based; settings: for survival percentage (mean ± SEM): MCF-7, 24 hours
Method: as §1, §2, §3, §4

MDA in MCF-7 cells = assay: Lipid peroxidation (MDA); assay type: cell-based, human; settings: IC50, in comparison to untreated cells
Method: MDA is described as a lipid peroxidation product. It reacts with thiobarbituric acid to produce a red substance that is absorbed at 535 nm.
MDA has been described as the product of lipid peroxidation that reacts with thiobarbituric acid to produce a red substance that is absorbed at 535 nm (Kei et al., 1978). HepG2 and MCF7 cells treated with synthetic thienopyrimidine were mixed with 2 ml of solution of trichloroacetic acid (TCA), thiobarbituric acid (TBA) and hydrochloric acid (HCl) and mixed thoroughly, and then heated in a boiling water bath. during 15 minutes. After cooling, the precipitate was removed by centrifugation at 3000 rpm for 10 minutes. Relative to the reagent blank, which measures the absorbance at 535 nm, the blank reagent contains all reagents except cells. The MDA concentration is expressed as nmol/ml using a calibration curve.

MCF-7 cell line = assay: Cell cycle analysis (PI, flow cytometry); assay type: cell-based, human; settings: compared with control cells
Method: (§5) Cell cycle analysis was performed to decide if the newly synthesized thienopyrimidine derivatives arrested the cell cycle and at what phase of the cell cycle, the HepG2 and MCF-7 cell lines were arrested. The experiments were performed as previously described by Tolba et al.. HepG2 and MCF-7 cell lines were seeded and incubated with the tested compounds in 6-well plates. After incubation overnight, the cells were washed twice with ice-cold phosphate-buffered saline (PBS), detached by EDTA-trypsinization from the plates, harvested by centrifugation, fixed in ice-cold 70% (v/v) ethanol, and washed with phosphate-buffered saline (PBS, pH 7.2 ± 0.2). The cells were resuspended with 0.1 mg/ml RNase, stained with […] propidium iodide (PI), and analyzed by flow cytometry using a FACSCalibur flow cytometer (BD Biosciences, San Jose, CA). CellQuest software (Becton Dickinson) was used to determine the cell cycle distributions after incubation with 5-FU or tested compounds. Exposure of HepG2 and MCF-7 cell lines to these compounds could interfere with the normal cell cycle distribution.

HepG2 cell line = assay: Cell cycle analysis (PI, flow cytometry); assay type: cell-based, human
Method: as §5

SMILES	early and late apoptosis (HepG2 cells)	melting point	survival percentage (mean ± SEM) ([1]; 4.8828125 μg/ml)	survival percentage (mean ± SEM) ([1]; 9.765625 μg/ml)	survival percentage (mean ± SEM) ([1]; 19.53125 μg/ml)	survival percentage (mean ± SEM) ([1]; 39.0625 μg/ml)	survival percentage (mean ± SEM) ([1]; 78.125 μg/ml)	survival percentage (mean ± SEM) ([1]; 156.25 μg/ml)	survival percentage (mean ± SEM) ([1]; 312.5 μg/ml)	survival percentage (mean ± SEM) ([1]; 625 μg/ml)	survival percentage (mean ± SEM) ([1]; 1250 μg/ml)	survival percentage (mean ± SEM) ([1]; 2500 μg/ml)	survival percentage (mean ± SEM) ([1]; 5000 μg/ml)	survival percentage (mean ± SEM) ([1]; 10000 μg/ml)	survival percentage (mean ± SEM) ([2]; 4.8828125 μg/ml)	survival percentage (mean ± SEM) ([2]; 9.765625 μg/ml)	survival percentage (mean ± SEM) ([2]; 19.53125 μg/ml)	survival percentage (mean ± SEM) ([2]; 39.0625 μg/ml)	survival percentage (mean ± SEM) ([2]; 78.125 μg/ml)	survival percentage (mean ± SEM) ([2]; 156.25 μg/ml)	further results
CCOC(=O)Cn1c(SCC(=O)Nc2ccc(C(=O)/C=C\c3cccc([N+](=O)[O-])c3)cc2)nc2sc3c(c2c1=O)CC(C)(C)NC3(C)C [Compound 3g, Ethyl (Z)-2-(6,6,8,8-Tetramethyl-2-((2-((4-(3-(3-nitrophenyl)acryloyl)-phenyl)amino)-2-oxoethyl)thio)-4-oxo-5,6,7,8-tetrahydropyrido[4′,3′:4,5]thieno[2,3-d]pyrimidin-3(4H)-yl)acetate]	significantly exhibited early and late apoptosis	194 to 195 °C	131.3 ± 0.033%	115.9 ± 0.098%	97.8 ± 0.053%	64.1 ± 0.038%	17.5 ± 0.002%	14.5 ± 0.003%	14.1 ± 0.002%	13.0 ± 0.003%	12.5 ± 0.001%	12.7 ± 0.002%	12.5 ± 0.001%	12.3 ± 0.002%	105.3 ± 0.032%	98.2 ± 0.023%	96.4 ± 0.003%	81.0 ± 0.009%	28.0 ± 0.015%	20.1 ± 0.003%	fold more potent activity than 5-FU ([1]; HepG2 cell line): 420.94 fold; survival percentage (mean ± SEM) ([2]; 312.5 μg/ml): 19.4 ± 0.004%; survival percentage (mean ± SEM) ([2]; 625 μg/ml): 19.9 ± 0.001%; survival percentage (mean ± SEM) ([2]; 1250 μg/ml): 19.9 ± 0.002%; survival percentage (mean ± SEM) ([2]; 2500 μg/ml): 19.0 ± 0.001%; survival percentage (mean ± SEM) ([2]; 5000 μg/ml): 18.9 ± 0.001%; survival percentage (mean ± SEM) ([2]; 10000 μg/ml): 15.3 ± 0.000%; fold more effective anticancer activity than 5-FU ([2]; MCF-7 cell line): 350.4 fold; MDA (MDA in MCF-7 cells): significant elevation; G1 and pre-G1 arrest (MCF-7 cell line): significantly (P < 0.05) induced G1 and pre-G1 arrest; cell population in G2/M compared with control cells (HepG2 cell line): substantial increase; cell population in pre-G1 phases compared with control cells (HepG2 cell line): significant increase
CCOC(=O)Cn1c(SCC(=O)Nc2ccc(C(=O)/C=C\c3cc(OC)c(OC)c(OC)c3)cc2)nc2sc3c(c2c1=O)CCN(C(=O)OCC)C3 [Compound 3b, Ethyl (Z)-3-(2-Ethoxy-2-oxoethyl)-4-oxo-2-((2-oxo-2-((4-(3-(3,4,5 trimethoxyphenyl)acryloyl)phenyl)amino)ethyl)thio)-3,5,6,8 tetra-hydropyrido[4′,3′:4,5]thieno[2,3-d]pyrimidine-7(4H)-carboxylate]	significantly exhibited early and late apoptosis	172 to 173 °C	110.1 ± 0.046%	67.9 ± 0.048%	23.2 ± 0.012%	18.4 ± 0.006%	17.3 ± 0.007%	16.2 ± 0.004%	13.3 ± 0.004%	12.9 ± 0.006%	12.7 ± 0.002%	12.2 ± 0.001%	12.1 ± 0.001%	12.1 ± 0.002%	104.9 ± 0.016%	102.6 ± 0.015%	83.2 ± 0.022%	31.8 ± 0.009%	27.7 ± 0.026%	21.3 ± 0.013%	times more activity compared to compounds 3a and 3c ([1]; HepG2 cell line): ~ 18 times; survival percentage (mean ± SEM) ([2]; 312.5 μg/ml): 21.0 ± 0.001%; survival percentage (mean ± SEM) ([2]; 625 μg/ml): 20.3 ± 0.002%; survival percentage (mean ± SEM) ([2]; 1250 μg/ml): 20.3 ± 0.001%; survival percentage (mean ± SEM) ([2]; 2500 μg/ml): 20.1 ± 0.001%; survival percentage (mean ± SEM) ([2]; 5000 μg/ml): 19.7 ± 0.002%; survival percentage (mean ± SEM) ([2]; 10000 μg/ml): 17.3 ± 0.001%; fold more effective anticancer activity than 5-FU ([2]; MCF-7 cell line): 846.5 fold; times more activity compared to compound 3g ([2]; MCF-7 cell line): ~ 2.5 times; MDA (MDA in MCF-7 cells): significant elevation; G1 and pre-G1 arrest (MCF-7 cell line): significantly (P < 0.05) induced G1 and pre-G1 arrest; cell population in pre-G1 phases compared with control cells (HepG2 cell line): significant increase
